Experimental findings from ChEMBL document CHEMBL1140835, “Design, synthesis, and in vitro antitumor activity of new 1,4-diarylimidazole-2-ones and their 2-thione analogues” (2008) are described below.

SMILES strings stand for the structures. A value given as a limit tells only on which side of the number the result lay.

What is called GI50 is the concentration at which growth is held to half of that of the control. The low end stands for greater sensitivity of the cells, the high end for lower sensitivity of the cells.

Common to all, as to format: functional
One assay concerns HCT-15. Nature of the assay: Antiproliferative activity against human HCT15 cells.
The next assay relates to EKVX. The assay can be described thus: Antiproliferative activity against human EKVX cells.
Another assay relates to RXF 393. Nature of the assay: Antiproliferative activity against human RXF393 cells.
For the next assay, the system named is DU-145. Nature of the assay: Antiproliferative activity against human DU145 cells.
In the next assay the test system is RPMI-8226. The assay can be described thus: Antiproliferative activity against human RPMI8226 cells.
The test system of the next assay is PC-3. The assay can be described thus: Antiproliferative activity against human PC3 cells.
Another assay deals with SK-MEL-5. Nature of the assay: Antiproliferative activity against human SK-MEL-5 cells.
The next assay has as its system SF-539. Nature of the assay: Antiproliferative activity against human SF539 cells.
For the next assay, the system named is HL-60. The assay can be described thus: Antiproliferative activity against human HL60 cells.
A further assay has as its system SNB-75. Nature of the assay: Antiproliferative activity against human SNB75 cells.
In a further assay the test system is UO-31. Nature of the assay: Antiproliferative activity against human UO31 cells.
A further assay concerns CCRF-CEM. The assay can be described thus: Antiproliferative activity against human CCRF-CEM cells.
For a further assay, the system named is MOLT-4. The assay can be described thus: Antiproliferative activity against human MOLT4 cells.
The test system of a further assay is 786-0. The assay can be described thus: Antiproliferative activity against human 786-0 cells.
In a further assay the test system is Hs-578T. The assay can be described thus: Antiproliferative activity against human HS578T cells.
Another assay has as its system LOX IMVI. Nature of the assay: Antiproliferative activity against human LOX IMVI cells.
Another assay deals with SF-295. The assay can be described thus: Antiproliferative activity against human SF295 cells.
For the next assay, the system named is HOP-92. Nature of the assay: Antiproliferative activity against human HOP92 cells.
In another assay the test system is CAKI-1. The assay can be described thus: Antiproliferative activity against human CAKI-1 cells.
For another assay, the system named is SR. The assay can be described thus: Antiproliferative activity against human SR cells. Conditions: for TGI: read-out: pTGI (converted).
Another assay has as its system UACC-62. The assay can be described thus: Antiproliferative activity against human UACC62 cells.
For a further assay, the system named is HCT-116. Nature of the assay: Antiproliferative activity against human HCT116 cells.
The nature of assay [1]: Antiproliferative activity against human […] cells.

On to `COc1ccc(-n2cc(-c3cc(OC)c(OC)c(OC)c3)[nH]c2=S)cc1OC`, for which the GI50 with HCT-15, in the assay with EKVX, in the assay with RXF 393, in the assay on DU-145, in the assay with RPMI-8226 and with PC-3 was above 100 µM in each case. Further, the GI50 with SK-MEL-5 was above 100 µM; in the assay with SF-539, above 100 µM; in the assay with HL-60, above 100 µM; with SNB-75, 63.1 µM; with UO-31, above 100 µM; with CCRF-CEM, above 100 µM. Further, the GI50 in the assay with MOLT-4 was 6.31 µM; with 786-0 it was above 100 µM; in the assay on Hs-578T, above 100 µM; in the assay with LOX IMVI it was above 100 µM; with SF-295 it was above 100 µM; with HOP-92 it was above 100 µM. For the same molecule, the GI50 was above 100 µM in the assay on CAKI-1; 2.51 µM with SR; above 100 µM with UACC-62; above 100 µM in the assay on HCT-116; above 100 µM in assay [1]. Besides, the TGI in the assay with SR is 7.94 µM.
With `O=c1[nH]c(-c2ccc(Cl)c(Cl)c2)cn1-c1ccc(Cl)cc1`, the GI50 is above 100 µM in the assay on HCT-15; 31.6 µM with EKVX; 31.6 µM in the assay with RXF 393; 31.6 µM in the assay with DU-145; 63.1 µM in the assay with RPMI-8226; 63.1 µM in the assay with PC-3. Further, the concentration for 50% growth inhibition (GI50) in the assay on SK-MEL-5 is 39.8 µM; in the assay with SF-539, 20 µM; in the assay with HL-60 it was 31.6 µM; in the assay on SNB-75 it was 20 µM; in the assay with UO-31 it was 25.1 µM; in the assay with CCRF-CEM, 39.8 µM. Moreover, the GI50 in the assay on MOLT-4 was 20 µM; in the assay on 786-0, 20 µM; in the assay with Hs-578T it was 15.8 µM; with LOX IMVI, 39.8 µM; in the assay with SF-295 it was 25.1 µM; with HOP-92, 15.8 µM. For the same molecule, the GI50 in the assay with CAKI-1 is 25.1 µM; in the assay with SR, 5.01 µM; with UACC-62 it was 25.1 µM; in the assay on HCT-116 it was 15.8 µM; in assay [1], 25.1 µM. In addition, in the assay on SR, the TGI was 15.8 µM.
In the case of `COc1ccc(-n2cc(-c3cc(OC)c(OC)c(OC)c3)[nH]c2=S)cc1Cl`, the GI50 in the assay on HCT-15 was above 100 µM; in the assay on EKVX, 39.8 µM; in the assay with RXF 393, 15.8 µM; in the assay on DU-145 it was 31.6 µM; in the assay on RPMI-8226 it was 5.01 µM; in the assay on PC-3 it was 50.1 µM. In addition, the GI50 with SK-MEL-5 is 25.1 µM; in the assay with SF-539, 20 µM; in the assay on HL-60 it was above 100 µM; with SNB-75, 20 µM; with UO-31, 39.8 µM; in the assay with CCRF-CEM, 0.631 µM. The concentration for 50% growth inhibition (GI50) in the assay with MOLT-4 is above 100 µM; in the assay with 786-0 it was 25.1 µM; in the assay with Hs-578T it was 15.8 µM; in the assay with LOX IMVI, 6.31 µM; with SF-295, 39.8 µM; in the assay with HOP-92 it was 31.6 µM. In addition, the 50% growth inhibitory concentration (GI50) with CAKI-1 was 5.01 µM; in the assay on UACC-62, above 100 µM; in the assay on HCT-116 it was 25.1 µM; in assay [1], 31.6 µM.
For `COc1ccc(-n2cc(-c3ccc(Cl)cc3)[nH]c2=S)cc1Cl`, the 50% growth inhibitory concentration (GI50) with HCT-15 is above 100 µM; in the assay with EKVX, 39.8 µM; with RXF 393 it was 25.1 µM; in the assay on DU-145 it was 39.8 µM; in the assay on RPMI-8226, 50.1 µM; with PC-3, 31.6 µM. Also, the GI50 was 39.8 µM in the assay on SK-MEL-5; 20 µM with SF-539; above 100 µM in the assay on HL-60; 20 µM in the assay on SNB-75; 20 µM in the assay with UO-31; 63.1 µM in the assay on CCRF-CEM. In addition, the 50% growth inhibitory concentration (GI50) in the assay with MOLT-4 was 39.8 µM; with 786-0 it was 20 µM; in the assay with Hs-578T, 25.1 µM; in the assay with LOX IMVI, 100 µM; in the assay on SF-295 it was 25.1 µM; in the assay with HOP-92, 15.8 µM. Further, the GI50 with CAKI-1 was 25.1 µM; in the assay on UACC-62, 79.4 µM; in the assay on HCT-116, 50.1 µM; in [1], 20 µM.
